The record followed here is PMC12216184 (Nature Communications, 2025).

What is called stoichiometry N is the number of molecules, sites or subunits per partner or assembly. Usually Kd stands for the equilibrium constant for the complex coming apart. Read a high Kd as lower affinity.

Non-standard residues stand in square brackets, D forms with d. No end group written: not given here.

For assay [1], the target named is p53^TAD2 (residues 37-57), synthetic peptide (human) (UniProt P04637). In words: ITC. (In general: ITC needs no label: the signal is the heat of the interaction.)
The target of assay [2] is p53^TAD2 phosphorylated at Ser46 and Thr55 (human) (UniProt P04637). In words: ITC.
For assay [3], the target named is p53^TAD2 phosphorylated at Ser46 (human) (UniProt P04637). In words: ITC.
The target in assay [4] is p53^TAD2 phosphorylated at Thr55 (human) (UniProt P04637). In words: ITC.
The target of assay [5] is N-terminal p53 region from amino acids 1 to 94 (p53^1-94) (human) (UniProt P04637). In words: ITC.
Assay [6] concerns p53^1–94. In words: NMR secondary chemical shifts and relaxation (15N{1H} NOE, R1, R2) of p53^1–94. It counts as binding, human. Particulars: 300 µM p53^1–94 with 400 µM ligand, pH 7.5. The procedure: Data analysis von R1 and R1ρ measurements were performed using CcpNMR 2.5[49]. As fitting function, the following equation was used2 Mzt=M0^−Rit+C where Mz(t) is the longitudinal relaxation at the recovery delay time t, M0 is the equilibrium magnetization and Ri is either the longitudinal relaxation rate R1 or R1ρ. The transverse relaxation in the rotating frame R1ρ was then converted to R2 as described previously[50],[51] using the formula3 R1ρ=R1cos^2θ+R2sin^2θ in which θ = arctan(1/Ω) is the tilt angle between the static magnetic field and the effective field in the rotating frame.

Assay [7] concerns endogenous p53 versus p53^ΔTAD2 in RPE-1 cells. Description: Pull-down of endogenous p53 versus p53^ΔTAD2 from RPE-1 cells. Particulars: biotinylated bait (26 µM FOXO-FH or 125 µM biotinylated peptide CLO4201) on streptavidin agarose, 1 mg/mL RPE-1 lysate, 4 °C, Western blot, triplicates. It counts as binding, human. The text has this:
Then, cells were selected by blasticidin for 10 days. Cells, which were expressing 3HA-GFP-miniturbo, p53-3HA-GFP-miniturbo-p53 and p53-Δtad2-3HA-GFP-miniturbo were sorted by FACS using GFP (Supplementary Fig. 17).
p53 mutant human TERT-immortalized retinal pigment epithelial 1 (RPE1) cells (RPE1 TP53^−/−; denoted RPE-1 p53KO) cells were kindly provided by Joanna Loizou (CeMM Research Center for Molecular Medicine of the Austrian Academy of Sciences, Vienna, Austria)[48]. […] For the preparation of cell lysates for pull down experiments, cells were grown to confluence and incubated with 10 µM Etoposide (Sigma) for 24 h. Cells were harvested in ice cold PBS pH 7.4 and lysed in lysis buffer (10 mM Tris pH 7.4, 1% IGEPAL®CA-630, 0.1% SDS, 140 mM NaCl, 2 mM MgCl2) supplemented with protease inhibitor cocktail, Benzonase (Merck Millipore) and RNase (molecular biology, Thermo Fisher). Samples were incubated on ice for 20 min, lysed by sonication and centrifuged for 15 min at 24,104 g and 4 °C. Pellets were discarded. Protein amount of lysates was determined by BCA protein assay. Lysates were then diluted to a protein concentration of 1 mg/mL in ice-cold dilution buffer (10 mM Tris pH 7.4, 1% IGEPAL®CA-630, 0.1% SDS, 140 mM NaCl, 2 mM EDTA) supplemented with protease inhibitor cocktail. […]
On the technique in general: Immunoblotting shows a protein as a band on a membrane.

Assay [8] relates to p53^1–94. In words: 1H,15N HSQC NMR titration of 15N-labeled p53^1–94 (CSP). Type of assay: binding, human. Conditions: 15N-labeled p53^1–94, NMR titration.
The next assay has as its target T1, p53^TAD2 (Homo sapiens, UniProt P04637).
T1 construct: purchased Peptide Specialty Laboratories GmbH
Description: ITC, p53^TAD2. Type of assay: binding.

The target in a further assay is T2, p53^1-94 (Homo sapiens, UniProt P04637).
T2 construct: His6-protein A (TEV cleavage site) (cleaved yes); made in house; host or cells: Escherichia coli BL21-DE3 Star
In words: ITC, p53^1-94. It counts as binding.

A further assay has as its target T3, p53^TAD2pS46 (Homo sapiens, UniProt P04637).
T3 construct: purchased Peptide Specialty Laboratories GmbH
Description: ITC, p53^TAD2pS46. It counts as binding.

The target in a further assay is T4, p53^TAD2pT55 (Homo sapiens, UniProt P04637).
T4 construct: purchased Peptide Specialty Laboratories GmbH
Description: ITC, p53^TAD2pT55. Type of assay: binding.

In the next assay the target is T5, p53^TAD2pS46T55 (Homo sapiens, UniProt P04637).
T5 construct: purchased Peptide Specialty Laboratories GmbH
In words: ITC, p53^TAD2pS46T55. It counts as binding.

The test system of a further assay is FOXO4^CR3. Description: 1H,15N HSQC NMR titration of 15N-labeled FOXO4^CR3 (CSP). Particulars: 15N-labeled FOXO4^CR3, NMR titration with p53^DBD. Type of assay: binding, human.
Another assay deals with FOXO4^FH. In words: 1H,15N HSQC NMR titration of 15N-labeled FOXO4^FH (CSP). Particulars: one equivalent of phosphopeptide versus p53^TAD2, 15N-labeled FOXO4^FH. It counts as binding, human.

T2 sequence (P04637 1-94): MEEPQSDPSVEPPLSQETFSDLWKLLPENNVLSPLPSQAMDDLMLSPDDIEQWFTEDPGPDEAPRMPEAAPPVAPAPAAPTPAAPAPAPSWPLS
Chain of N-terminal p53 region from amino acids 1 to 94 (p53^1-94) (human) (P04637 1-94): as above
T4 sequence (P04637 37-57): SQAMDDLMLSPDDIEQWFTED

As to “FOXO4-DRI (D-retro-inverso cell-penetrating peptide derived from the FOXO4 FH domain, fused to HIV-TAT)”, the dH in assay [1] was 0.2 kcal/mol; in assay [2], -4.5 kcal/mol; in [3] it was -1.8 kcal/mol; in assay [4], -4.7 kcal/mol; in assay [5], 5.9 kcal/mol. Moreover, the stoichiometry N in [1] is 0.9; in assay [2] it was 1.11; in [3], 0.71; in assay [4] it was 0.74; in assay [5], 0.9.

Consider “FOXO4^FH: FOXO4 forkhead domain fragment, amino acids 86–208”, for which, in the assay with p53^1–94 [6], the “15N{1H} NOE change” value is listed as “increased substantially in the presence of FOXO4^FH” and the “R1 relaxation rate change” value was “highly similar”. Also, the “pull-down of endogenous p53 versus p53^ΔTAD2” value in assay [7] is “higher amounts of endogenous p53 versus p53^ΔTAD2”. Moreover, the “most affected residues of p53 (CSP)” value in the assay with p53^1–94 [8] is listed as “region from amino acids 45 to 57”.

Take “[dL][dT][dL][dR][dK][dE][dP][dA][dS][dE][dI][dA][dQ][dS][dI][dL][dE][dA][dY][dS][dQ][dN]G[dW][dA][dN][dR][dR][dS]GG[dK][dR][dP][dP][dP][dR][dR][dR][dQ][dR][dR][dK][dK][dR]G [FOXO4-DRI]”: the Kd was 18.5 ± 3.6 µM on p53^TAD2; 0.4 ± 0.3 µM at p53^1-94; 10.5 ± 1.5 µM on p53^TAD2pS46; 5.8 ± 1.2 µM on p53^TAD2pT55; 4.9 ± 0.3 µM on p53^TAD2pS46T55.

With “p53^DBD: human p53 DNA-binding domain fragment, amino acids 94–312”, in the assay with FOXO4^CR3, the “most affected residues of FOXO4^CR3 (CSP)” value is “between FOXO4 amino acids 473 and 491”.

With “p53^TAD2pS46: p53^TAD2 peptide phosphorylated at Ser46”, the “effect of phosphorylation on CSPs of FOXO4^FH” value in the assay on FOXO4^FH is on record as “stronger CSPs”.

In the case of “p53^TAD2pT55: p53^TAD2 peptide phosphorylated at Thr55”, the “effect of phosphorylation on CSPs of FOXO4^FH” value in the assay on FOXO4^FH is recorded as “stronger CSPs”.
